EP0097071A1, “Benzhydryl sulfinylacetamide derivatives and their therapeutical use” (LABORATOIRE L. LAFON Société anonyme dite:, priority 1982, dated 1983)

What was measured:
[1] = test system: souris; test: Four plates test; format: in vivo; conditions: 0,5 h after administration, dose not stated
[2] = test system: souris groupées; test: Toxicity in grouped mice; conditions: in vivo
[3] = test system: souris; test: Electroshock; format: in vivo; conditions: dose not stated
[4] = test system: souris; test: Spontaneous motility (actimeter); format: in vivo; conditions: 8 mg/kg, 32 mg/kg et 128 mg/kg i.p.
Method in brief: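 Male mice dosed i.p. as a suspension in aqueous gum arabic (20 ml/kg); 30 min later they are placed in an actimeter and motility is recorded for 30 min, 6 mice per dose, 12 controls.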

[5] = test system: souris; test: Motility reduced by habituation to the enclosure; format: in vivo; conditions: dès 8 mg/kg et surtout à 32 mg/kg et 128 mg/kg i.p.
Method in brief: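 Male mice (6 per dose, 12 controls) habituated 18 h in actimeters got compound i.p. as aqueous gum arabic suspension, 20 ml/kg. Returned to enclosures immediately; motility recorded for 30 min starting 30 min post-dose.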

[6] = test system: souris; test: Asphyxic anoxia (gallamine triethiodide); format: in vivo; conditions: dose not stated
Method in brief: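 Male mice, 10 per dose, given compound i.p. as suspension in aqueous gum arabic (20 ml/kg). Gallamine triethiodide 32 mg/kg i.p. injected 30 min after compound.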

[7] = test system: souris; test: Interaction with apomorphine, mouse; format: in vivo
Method in brief: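 Male mice, 6 per dose, received the test compound intraperitoneally as an aqueous gum arabic suspension (20 ml/kg).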

[8] = test system: souris; test: Traction test; format: in vivo; conditions: 0,5 h after administration, dose not stated
[9] = test system: souris; test: Motility reduced by hypoxic aggression (acute hypobaric anoxia); format: in vivo; conditions: 32 mg/kg, mais surtout 128 mg/kg i.p.
Method in brief: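 Male mice (10 per dose, 20 controls) got compound i.p. as an aqueous gum arabic suspension (20 ml/kg). Thirty minutes later they underwent acute hypobaric anoxia: 600 mm Hg depression over 90 s, then 45 s release. Motility was then recorded in an actimeter for 10 min.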

[10] = test system: souris mâles; test: Global behaviour and reactivities, mouse; format: in vivo
[11] = test system: homme; test: Clinical trials; format: in vivo
From the text: Les études cliniques ont porté sur les troubles de la vigilance, de l'éveil et des états confusionnels, d'une part, et sur les troubles de l'affectivité, du contact et des dépressions, d'autre part.

[12] = test system: SNC; test: Essential activity on the CNS (Tableau I and conclusions of the neuropsychopharmacological study); format: in vivo; conditions: in vivo
From the text: Dans le tableau I ci-après, on a consigné un certain nombre de composés selon la formule I de façon nullement limitative, en mentionnant l'activité essentielle sur le SNC.
Les composés de formule I agissent tous sur le SNC. Les produits des exemples 1-3 et 7-8 sont des agents stimulants, en revanche les produits des exemples 4-6 sont des agents sédatifs.

[13] = test system: souris mâle; test: Pentobarbital-induced sleep duration; format: in vivo; conditions: dose 32 mg/kg i.p., 0,5 h before pentobarbital
From the text: Les composés selon l'invention se distinguent du benzhydrylsulfinylacétamide (CRL 40476) précité par une différence d'action vis-à-vis du sommeil barbiturique. […]. Cette différence d'action qui est intéressante sur le plan thérapeutique est illustrée par le tableau IV

[14] = test system: souris; test: Interaction with reserpine; format: in vivo; conditions: 32 mg/kg, 64 mg/kg et 128 mg/kg i.p.
[15] = test system: rats; test: Interaction with amphetamine (stereotypies); format: in vivo; conditions: rat, 64 mg/kg i.p.
Method in brief: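 Male rats, groups of 6, given test compound i.p. as aqueous gum arabic suspension; amphetamine 2 mg/kg i.p. injected 30 min later and stereotypies scored.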

[16] = test system: souris mâle; test: Toxicity, DL-0; format: in vivo; conditions: i.p.
Method in brief: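 Male mice dosed intraperitoneally with compound suspended in aqueous gum arabic at 20 ml/kg. Value is DL-0, the minimal non-lethal dose.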

[17] = test system: souris; test: Behavioural despair (forced immersion); format: in vivo; conditions: 8 mg/kg, 32 mg/kg et 128 mg/kg i.p.
Method in brief: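 Male mice were dosed i.p. with compound suspended in aqueous gum arabic at 20 ml/kg, 10 per dose. Thirty minutes later each mouse was put in a confined space holding 6 cm of water, and immobility time was scored from minute 2 to minute 6.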

[18] = test system: rats mâles; test: Global behaviour and reactivities, rat; format: in vivo
[19] = test system: souris; test: Interaction with oxotremorine; format: in vivo
Method in brief: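 Groups of 6 male mice received test compound i.p. as a suspension in aqueous gum arabic (20 ml/kg).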

[20] = test system: souris; test: Interaction with barbital (sleep); format: in vivo; conditions: 32 mg/kg et 128 mg/kg i.p.
Method in brief: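 Male mice (groups of 10) dosed intraperitoneally with compound suspended in aqueous gum arabic (20 ml/kg); barbital 220 mg/kg i.p. given half an hour later.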

[21] = test system: souris; test: Intergroup aggressiveness; format: in vivo; conditions: dose not stated
Method in brief: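 Male mice, housed in groups of 3 on either side of an opaque partition for 3 weeks, received compound i.p. as a gum arabic suspension at 20 ml/kg. After 30 min the partition was removed, and fights were counted over 10 min.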

[22] = test system: rat; test: Interaction with apomorphine, rat; format: in vivo; conditions: 64 mg/kg i.p.
Method in brief: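 Groups of 6 male rats received test compound intraperitoneally as a suspension in aqueous gum arabic (5 ml/kg).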

## NC(=O)C[S+]([O-])C(c1ccc(F)cc1)c1ccc(F)cc1 (centres unmarked) [Exemple 8, 4,4'-difluorobenzhydrylsulfinylacétamide]
[1]
  nombre de passages punis: n'entraîne pas d'augmentation
[2]
  toxicité particulière chez les souris groupées: absence de toxicité particulière
[3]
  effets convulsivants de l'électrochoc: ne modifie pratiquement pas
[4]
  motilité spontanée: augmentation nette
[5]
  activité motrice chez la souris habituée à son enceinte: reprise d'activité motrice très nette
[6]
  délai d'apparition des convulsions et de la mort consécutives à une anoxie asphyxique: ne modifie pas
[7]; 32 mg/kg et 128 mg/kg i.p.
  own effect on temperature: hypothermisant
[7]; 32 mg/kg et 128 mg/kg i.p., apomorphine 1 et 16 mg/kg
  hypothermie induite par l'apomorphine: aggrave
[7]; dose not stated
  comportement de verticalisation et stéréotypies (apomorphine): ne modifie pas
[8]
  déficit moteur (traction): ne provoque pas d'incapacité motrice majeure
[9]
  récupération motrice après séjour bref dans une enceinte à pression réduite: amélioration significative
[10]; souris
  signes de stimulation sympathique périphérique: absence
[10]; souris, 2 mg/kg i.p.
  Observations (comportement global et réactivités): réactivité au toucher pendant 2 h
[10]; souris, 8 mg/kg i.p.
  Observations (comportement global et réactivités): éxcitation tardive débutant 2 h après administration - réactivité au toucher pendant 2 h
[10]; souris, 512 mg/kg i.p.
  Observations (comportement global et réactivités): démarche titubante pendant 0,75 h, - convulsions (66% des animaux) pendant 0,75 h
  mortalité: 4 animaux sur 6 en 1 h, puis 2 animaux sur 6 en 24 h
[10]; souris, 512 mg/kg i.p., pendant 0,75 h
  convulsions: 66 % des animaux
[10]; souris, 32 mg/kg i.p.
  Observations (comportement global et réactivités): excitation tardive débutant 1 h après administration et durant 2 h - stéréotypies 3 h après administration - réactivité au toucher pendant 24 h
[10]; souris, 128 mg/kg i.p.
  Observations (comportement global et réactivités): excitation avec stéréotypies pen-dant 3 h - augmentation de la réactivité au toucher pendant 24 h - hypothermie (-1,3°C) pendant 3 h
  hypothermie: -1,3 °C
[10]; souris, 256 mg/kg i.p.
  Observations (comportement global et réactivités): excitation débutant 0,5 h après adminis-tration - stéréotypies
  mortalité: pas de mortalité
[10]; supposed from the late onset of several effects and the kinetic study of stereotypies
  résorption: résorption lente
[11]
  action contre l'énurésie: agissent efficacement
[11]; notamment vieillard, gélules ou comprimés de 100 à 200 mg, 1 à 3 par jour
  résultats en tant que médicaments de l'éveil: excellents résultats
[12]
  Activité sur le SNC: stimulant
  conclusion of the neuropsychopharmacological study: main type of CNS effect: composante excitante
[13]
  Action sur la durée du sommeil induit par le pentobarbital (50 mg/kg i.p.) effet: (a)
[14]
  hypothermie réserpinique: antagonise tardivement
[14]; à 24 h
  ptôsis réserpinique: antagonise également mais de façon modérée
[15]
  stéréotypies amphétaminiques: potentialisation
[16]
  DL-O: supérieure à 256 mg/kg
[17]
  durée d'immobilité de la souris placée en immersion forcée: diminue nettement
[18]; 16 mg/kg i.p.
  Observations (comportement global et réactivités): excitation - réactivité au toucher pendant 2 h
[18]; 64 mg/kg i.p.
  Observations (comportement global et réactivités): excitation - réactivité au toucher - fréquence respiratoire augmentée pendant 24 h
[19]; 2 mg/kg, 8 mg/kg, 32 mg/kg et 128 mg/kg i.p.
  hypothermie induite par l'oxotrémorine: antagonise modérément et tardivement
[19]; dose not stated
  signes de stimulation cholinergique périphérique dus à l'oxotrémorine: ne modifie pas
  tremblements induits par l'oxotrémorine: ne sont pratiquement pas modifiés
[20]
  durée du sommeil barbiturique: diminue nettement
[21]
  agressivité intergroupes (nombre de combats): n'a pas d'effet antiagressif
[22]
  stéréotypies induites par l'apomorphine: augmente
